Measurements taken from ChEMBL document CHEMBL1201862, “PubChem BioAssay data set” (2004).
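Interpolation was linear, between the two tested concentrations surrounding the appropriate level; five concentrations were tested over 48 hours in 96-well plates. At the GI50, growth is halved.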 The source made the active and inactive calls. No stated cut-off is given here; in the data, active = GI50 up to about 1.1 µM and inactive = higher.

What was measured:
Test in all cases: inhibition of tumour cell growth, NCI panel, 48 h
KM12 = tested on: KM12
OVCAR-3 = tested on: OVCAR-3
HCC 2998 = tested on: HCC 2998
A549 = tested on: A549
MDA-MB-435 = tested on: MDA-MB-435
SF-268 = tested on: SF-268
IGROV-1 = tested on: IGROV-1
U-251 = tested on: U-251
HCT-15 = tested on: HCT-15
MCF7 = tested on: MCF7
SW-620 = tested on: SW-620
MOLT-4 = tested on: MOLT-4
BT-549 = tested on: BT-549
NCI/ADR-RES = tested on: NCI/ADR-RES
HOP-92 = tested on: HOP-92
NCI-H23 = tested on: NCI-H23
SNB-19 = tested on: SNB-19
OVCAR-5 = tested on: OVCAR-5
SF-295 = tested on: SF-295
SNB-75 = tested on: SNB-75

**Q.** What does the source list for `CCCCC(=O)OC[n+]1ccc(-c2c(COC(=O)NC(C)C)c(COC(=O)NC(C)C)c3n2CCC3)cc1`?
**A.** GI50 (KM12): > 100 µM (inactive); GI50 (OVCAR-3): > 100 µM (inactive); GI50 (HCC 2998): > 100 µM (inactive); GI50 (A549): > 100 µM (inactive); GI50 (MDA-MB-435): > 100 µM (inactive); GI50 (SF-268): 57.9 µM (inactive); GI50 (IGROV-1): > 100 µM (inactive); GI50 (U-251): > 71.3 µM (inactive); GI50 (HCT-15): > 100 µM; GI50 (MCF7): 50.8 µM (inactive); GI50 (SW-620): > 76.2 µM (inactive); GI50 (MOLT-4): 19.5 µM (inactive); GI50 (BT-549): > 100 µM (inactive); GI50 (NCI/ADR-RES): > 100 µM (inactive); GI50 (HOP-92): > 84.1 µM (inactive); GI50 (NCI-H23): 53.6 µM (inactive); GI50 (SNB-19): > 100 µM (inactive); GI50 (OVCAR-5): > 100 µM (inactive); GI50 (SF-295): > 76.2 µM (inactive); GI50 (SNB-75): 60.3 µM (inactive)

**Q.** Which GI50 (KM12) does the source give for `Cc1ccc(NC(=O)c2cccc(OP(=O)(Nc3ccc(C)cc3)Nc3ccc(C)cc3)c2)cc1` here?
**A.** 5.5 µM (inactive)

**Q.** And the GI50 (OVCAR-3)?
**A.** 5.83 µM (inactive)

**Q.** What about the GI50 (HCC 2998) of the same compound?
**A.** 5.21 µM (inactive)

**Q.** And the GI50 (A549)?
**A.** 3.46 µM (inactive)

**Q.** And the GI50 (MDA-MB-435)?
**A.** 7.48 µM (inactive)

**Q.** And the GI50 (SF-268)?
**A.** 43.1 µM (inactive)

**Q.** What about the GI50 (IGROV-1) of the same compound?
**A.** 15.1 µM (inactive)

**Q.** And the GI50 (U-251)?
**A.** 6.58 µM (inactive)

**Q.** What about the GI50 (HCT-15) of the same compound?
**A.** 6.01 µM

**Q.** And the GI50 (MCF7)?
**A.** 5.62 µM (inactive)

**Q.** What about the GI50 (SW-620) of the same compound?
**A.** 8.18 µM (inactive)

**Q.** And the GI50 (MOLT-4)?
**A.** 2.61 µM (inactive)

**Q.** And the GI50 (BT-549)?
**A.** 22.2 µM (inactive)

**Q.** What about the GI50 (NCI/ADR-RES) of the same compound?
**A.** 12 µM (inactive)

**Q.** And the GI50 (HOP-92)?
**A.** 3.23 µM (inactive)

**Q.** What about the GI50 (NCI-H23) of the same compound?
**A.** 10.9 µM (inactive)

**Q.** What about the GI50 (SNB-19) of the same compound?
**A.** 35.1 µM (inactive)

**Q.** And the GI50 (OVCAR-5)?
**A.** 38.5 µM (inactive)

**Q.** What about the GI50 (SF-295) of the same compound?
**A.** 7.13 µM (inactive)

**Q.** What about the GI50 (SNB-75) of the same compound?
**A.** 4.14 µM (inactive)

**Q.** Which results are given for `NC1=NC(NCC2(CO)CCC2)=CC(OCC2(CO)CCC2)N1` (stereo not given)?
**A.** GI50 (KM12): > 100 µM (inactive); GI50 (OVCAR-3): > 100 µM (inactive); GI50 (HCC 2998): > 100 µM (inactive); GI50 (A549): > 100 µM (inactive); GI50 (MDA-MB-435): > 100 µM (inactive); GI50 (SF-268): > 100 µM (inactive); GI50 (IGROV-1): > 100 µM (inactive); GI50 (U-251): > 100 µM (inactive); GI50 (HCT-15): > 100 µM; GI50 (MCF7): > 100 µM (inactive); GI50 (SW-620): > 100 µM (inactive); GI50 (MOLT-4): 65.9 µM (inactive); GI50 (BT-549): > 100 µM (inactive); GI50 (NCI/ADR-RES): > 100 µM (inactive); GI50 (HOP-92): > 100 µM (inactive); GI50 (NCI-H23): 26.2 µM (inactive); GI50 (SNB-19): > 100 µM (inactive); GI50 (OVCAR-5): > 100 µM (inactive); GI50 (SF-295): > 100 µM (inactive); GI50 (SNB-75): > 100 µM (inactive)

**Q.** `COC(C(=O)NN)c1ccccc1` (stereo not given) was tested. Which GI50 (KM12) did it give?
**A.** > 100 µM (inactive)

**Q.** What about the GI50 (OVCAR-3) of the same compound?
**A.** > 100 µM (inactive)

**Q.** And the GI50 (HCC 2998)?
**A.** > 100 µM (inactive)

**Q.** And the GI50 (A549)?
**A.** > 100 µM (inactive)

**Q.** And the GI50 (MDA-MB-435)?
**A.** > 100 µM (inactive)

**Q.** What about the GI50 (SF-268) of the same compound?
**A.** > 100 µM (inactive)

**Q.** And the GI50 (IGROV-1)?
**A.** > 100 µM (inactive)

**Q.** What about the GI50 (U-251) of the same compound?
**A.** > 100 µM (inactive)

**Q.** What about the GI50 (HCT-15) of the same compound?
**A.** > 100 µM

**Q.** And the GI50 (MCF7)?
**A.** > 100 µM (inactive)

**Q.** What about the GI50 (SW-620) of the same compound?
**A.** > 100 µM (inactive)

**Q.** And the GI50 (MOLT-4)?
**A.** > 100 µM (inactive)

**Q.** What about the GI50 (BT-549) of the same compound?
**A.** > 100 µM (inactive)

**Q.** And the GI50 (NCI/ADR-RES)?
**A.** > 100 µM (inactive)

**Q.** And the GI50 (HOP-92)?
**A.** > 100 µM (inactive)

**Q.** And the GI50 (NCI-H23)?
**A.** > 100 µM (inactive)

**Q.** What about the GI50 (SNB-19) of the same compound?
**A.** > 100 µM (inactive)

**Q.** And the GI50 (OVCAR-5)?
**A.** > 100 µM (inactive)

**Q.** And the GI50 (SF-295)?
**A.** > 100 µM (inactive)

**Q.** And the GI50 (SNB-75)?
**A.** 27.8 µM (inactive)

**Q.** What does the source list for `COC(OC)(c1ccccc1)C(I)I`?
**A.** GI50 (KM12): 16.3 µM (inactive); GI50 (OVCAR-3): 15.3 µM (inactive); GI50 (HCC 2998): 23.1 µM (inactive); GI50 (A549): 18.5 µM (inactive); GI50 (MDA-MB-435): 4.37 µM (inactive); GI50 (SF-268): 19.3 µM (inactive); GI50 (IGROV-1): 13.9 µM (inactive); GI50 (U-251): 16.5 µM (inactive); GI50 (HCT-15): 6.61 µM; GI50 (MCF7): 18.7 µM (inactive); GI50 (SW-620): 2.92 µM (inactive); GI50 (MOLT-4): 2.38 µM (inactive); GI50 (BT-549): 11 µM (inactive); GI50 (NCI/ADR-RES): 16.3 µM (inactive); GI50 (HOP-92): 13.4 µM (inactive); GI50 (NCI-H23): 19.2 µM (inactive); GI50 (SNB-19): 35.3 µM (inactive); GI50 (OVCAR-5): 16.2 µM (inactive); GI50 (SF-295): 22.8 µM (inactive); GI50 (SNB-75): 13.1 µM (inactive)

**Q.** Which results are given for `COc1ccc(N2C(=O)c3cccnc3S2(=O)=O)cc1`?
**A.** GI50 (KM12): > 100 µM (inactive); GI50 (OVCAR-3): > 100 µM (inactive); GI50 (HCC 2998): > 100 µM (inactive); GI50 (A549): > 100 µM (inactive); GI50 (MDA-MB-435): > 100 µM (inactive); GI50 (SF-268): > 100 µM (inactive); GI50 (IGROV-1): > 100 µM (inactive); GI50 (U-251): > 100 µM (inactive); GI50 (HCT-15): > 100 µM; GI50 (MCF7): > 100 µM (inactive); GI50 (SW-620): > 100 µM (inactive); GI50 (MOLT-4): > 100 µM (inactive); GI50 (BT-549): > 100 µM (inactive); GI50 (NCI/ADR-RES): > 100 µM (inactive); GI50 (HOP-92): > 100 µM (inactive); GI50 (NCI-H23): > 100 µM (inactive); GI50 (SNB-19): > 100 µM (inactive); GI50 (OVCAR-5): > 100 µM (inactive); GI50 (SF-295): > 100 µM (inactive); GI50 (SNB-75): > 100 µM (inactive)
